From patent US9951082B2, “Crystal of 6,7-unsaturated-7-carbamoyl morphinan derivative and method for producing the same” (Shionogi & Co., Ltd., priority 2010, dated 2018)
Counter-ions that a name gives are not always drawn.

Tests used:
[1] = Solid stability test of crystal (storage, content by HPLC, appearance); type: physicochemical; design: key to Change of Appearance: when there was no change in appearance, an evaluation was (−); when there was a little change observed, it was (±); settings: for Survival Rate: vs standard stored at −40° C.; for Change in the appearance / Solid stability, decrease in content: all storage conditions, two or four weeks
Experimental: About 10 mg of crystal was correctly weighed in the 2-mL glass container with a stopper made of polyethylene.
After closing the glass container, it was rolled with parafilm, and stored for two or four weeks at 40° C. or 60° C. The sample stored at 40° C. is called 40° C. with airtight stopper, and the sample saved at 60 C. is called 60° C. with airtight stopper.
Also samples were reserved with the glass container opened at 40° C., relative humidity 89%, or 60° C., for two weeks or four weeks. The sample stored at 40° C. and relative humidity 89% is called 40° C. R.H.89%, and the sample stored at 60° C. is called 60° C. Opened.
Using samples with airtight stopper stored at −40° C. as a standard, the content was measured with the absolute calibration method by the HPLC method under the following conditions:
In addition, when there was no change in appearance, an evaluation was (−), and when there was a little change observed, it was (±).
Column: CAPCELL PAK C18 AQ (3 micrometer 3.0×150 mm)
Column temperature: 50° C.
UV detection wavelength: 231 nm
[A] A mixed solution containing ammonium formate (10 mmol/L) and magnesium chloride (10 mmol/L)

[2] = Confirmatory test for hygroscopicity of crystal (automated water vapor sorption, DVS); type: physicochemical
Experimental: After completion of the drying, relative humidity was continuously changed at intervals of 5% in a range from 0% to 95% and the amount of water vapor adsorption and desorption of the sample was measured with automated water vapor sorption apparatus: DVS Advantage (Surface Measurement Systems).

[3] = 40° C. R.H. 89%, opened, 2 weeks
[4] = 40° C. R.H. 89%, opened, 4 weeks
[5] = 60° C. airtight stopper, 2 weeks
[6] = 60° C. airtight stopper, 4 weeks
[7] = 40° C. airtight stopper, 4 weeks

Row | Structure (SMILES) | Change of Appearance [1, 3] | Survival Rate [1, 3] [%] | Change of Appearance [1, 4] | Survival Rate [1, 4] [%] | Change of Appearance ([1]; 60° C. Opened, 2 weeks) | Survival Rate ([1]; 60° C. Opened, 2 weeks) [%] | Change of Appearance ([1]; 60° C. Opened, 4 weeks) | Survival Rate ([1]; 60° C. Opened, 4 weeks) [%] | Change of Appearance [1, 5] | Survival Rate [1, 5] [%] | Change of Appearance [1, 6] | Survival Rate [1, 6] [%] | Change in the appearance [1] | Solid stability, decrease in content [1] | Hygroscopicity (in words) ([2]; 0% to 95% relative humidity at 25° C.) | Amount of the maximum moisture absorption ([2]; range of 0% to 95% of relative humidity at 25° C.) | Change of Appearance [1, 7] | Survival Rate [1, 7] [%]
1 | CC(C)(NC(=O)C1=C(O)[C@@H]2Oc3c(O)ccc4c3[C@@]23CCN(CC2CC2)[C@H](C4)[C@]3(O)C1)c1nc(-c2ccccc2)no1 [p-toluenesulfonic acid salt hydrate (form II)] | − | 100.9 | ± | 100.1 | − | 100.7 | ± | 100.4 | − | 102.0 | ± | 100.6 | no change in the appearance | stable |  |  |  | 
2 | CC(C)(NC(=O)C1=C(O)[C@@H]2Oc3c(O)ccc4c3[C@@]23CCN(CC2CC2)[C@H](C4)[C@]3(O)C1)c1nc(-c2ccccc2)no1 [p-toluenesulfonic acid salt hydrate (form I)] | − | 101.2 | ± | 98.4 | − | 100.5 | ± | 98.5 | − | 100.8 | ± | 99.2 | no change in the appearance | stable |  |  |  | 
3 | CC(C)(NC(=O)C1=C(O)[C@@H]2Oc3c(O)ccc4c3[C@@]23CCN(CC2CC2)[C@H](C4)[C@]3(O)C1)c1nc(-c2ccccc2)no1 [p-toluenesulfonic acid salt (non-solvate)] | − | 99.3 | − | 100.5 | − | 100.3 | − | 98.8 | − | 99.9 | − | 99.6 | no change in the appearance | stable | hygroscopicity was little observed | less than 1.2% | − | 98.0
